Experimental data taken from patent US6716818B2, “Caspase inhibitors and the use thereof” (Cytovia, Inc., priority 1999, dated 2004).
cmk = not defined here

Experiments:
[1] = test system: dopaminergic neurons grafted to hemiparkinsonian rats; settings: cited from earlier work
rCaspase 3 = target: T1, rCaspase 3 (Homo sapiens, UniProt P42574); assay: fluorometric caspase-3 enzyme assay (Ac-DEVD-AMC substrate); format: biochemical; settings: 2 ng rCaspase 3, 10 μM Ac-DEVD-AMC, 37° C., 30 minutes
T1 construct: purchased PharMingen, a Becton division company, San Diego, Calif
T1 sequence (P42574 29-175 limits assumed): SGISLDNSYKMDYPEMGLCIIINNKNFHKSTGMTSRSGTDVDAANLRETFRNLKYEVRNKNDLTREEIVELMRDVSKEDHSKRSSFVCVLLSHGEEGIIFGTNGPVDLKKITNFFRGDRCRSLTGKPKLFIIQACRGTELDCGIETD
Experimental: Enzyme activity was measured using synthetic peptide substrates attached to a fluorogenic leaving group. Cleavage of the synthetic substrate by the enzyme results in a fluorescent signal which is read in a spectrofluorometer or in a fluorometric microtiter plate reader.
12 concentrations of the testing compound ranged from 30 μM to […] were tested in the enzyme assay. The enzyme reaction was conducted in the presence of 2 ng rCaspase 3 (purchased from PharMingen, a Becton division company, San Diego, Calif.), various concentrations of testing compound, 10 μM caspase 3 substrate Ac-DEVD-AMC (SEQ ID NO:3) (purchased from Quality Controlled Biochemicals, Inc. Hopkinton, Mass.) and caspase buffer (20 mM PIPES, 100 mM NaCl, 10 mM DTT, 1 mM EDTA, 0.1% CHAPS and 10% sucrose, pH 7.2) in a total volume of 100 μl. The enzyme reaction was carried out in a 96-well plate and incubated at 37° C. for 30 minutes. The plate was then read with a fluorescence plate reader (EG&G WALLAG 1420-002) using excitation filter at 355 nm/emission filter at 460 nm. The data was analyzed using GraphPrism software.

[2] = treatment of the embryonic nigral cell suspension

IC50 (rCaspase 3)	Compound	functional recovery ([1]; hemiparkinsonian rats)	DNA fragmentation and apoptosis in transplants [1, 2]	survival of dopaminergic neurons grafted to hemiparkinsonian rats [1, 2]
	Ac-YVAD-cmk (reading uncertain; also: printed as Ac-YVAD-cmk)	substantially improved functional recovery	mitigated DNA fragmentation and reduced apoptosis in transplants	increased survival of dopaminergic neurons
72 nM	CC(C)C(NC(=O)OCC1CCCCC1)C(=O)NC(CC(=O)O)C(=O)CF (stereo not drawn) [Cyclohexylmethoxycarbonyl-Val-Asp-fmk]			
58 nM	CCOC(=O)NC(C(=O)NC(CC(=O)O)C(=O)CF)C(C)C (stereo not drawn) [Ethoxycarbonyl-Val-Asp-fmk]			
